Results from the NIST ThermoML archive (doi:10.1016/j.jct.2009.08.002).
± gives the expanded uncertainty stated by the source.

Assays:
[1] = molar heat capacity at constant pressure; xn = mol fraction of the nth substance listed; conditions: Liquid, Large sample (1 g) DSC, x2 = 0
[2] = molar heat capacity at constant pressure; conditions: 298.15 K; 101.33 kPa; Liquid; Large sample (1 g) DSC

SMILES: CC#N [acetonitrile] + CCCCCCn1cc[n+](C)c1.F[B-](F)(F)F
- molar heat capacity at constant pressure ([1]; 283.15 K): 90.03 ± 1.4 J/K/mol
- molar heat capacity at constant pressure ([1]; 288.15 K): 90.3 ± 1.4 J/K/mol
- molar heat capacity at constant pressure ([1]; 293.15 K): 90.6 ± 1.4 J/K/mol
- molar heat capacity at constant pressure ([1]; 298.15 K): 90.93 ± 1.4 J/K/mol
- molar heat capacity at constant pressure ([1]; 303.15 K): 91.28 ± 1.4 J/K/mol
- molar heat capacity at constant pressure ([1]; 308.15 K): 91.66 ± 1.4 J/K/mol
- molar heat capacity at constant pressure ([1]; 313.15 K): 92.07 ± 1.4 J/K/mol
- molar heat capacity at constant pressure ([1]; 318.15 K): 92.5 ± 1.4 J/K/mol
- molar heat capacity at constant pressure ([1]; 323.15 K): 92.96 ± 1.4 J/K/mol

SMILES: CCCCCCn1cc[n+](C)c1.F[B-](F)(F)F [1-hexyl-3-methylimidazolium tetrafluoroborate]
- molar heat capacity at constant pressure [2]: 432 ± 8 J/K/mol

SMILES: CC#N [acetonitrile] + CCCCCCCC[n+]1ccn(C)c1.F[B-](F)(F)F
- molar heat capacity at constant pressure ([1]; 283.15 K): 90.03 ± 1.4 J/K/mol
- molar heat capacity at constant pressure ([1]; 288.15 K): 90.3 ± 1.4 J/K/mol
- molar heat capacity at constant pressure ([1]; 293.15 K): 90.6 ± 1.4 J/K/mol
- molar heat capacity at constant pressure ([1]; 298.15 K): 90.93 ± 1.4 J/K/mol
- molar heat capacity at constant pressure ([1]; 303.15 K): 91.28 ± 1.4 J/K/mol
- molar heat capacity at constant pressure ([1]; 308.15 K): 91.66 ± 1.4 J/K/mol
- molar heat capacity at constant pressure ([1]; 313.15 K): 92.07 ± 1.4 J/K/mol
- molar heat capacity at constant pressure ([1]; 318.15 K): 92.5 ± 1.4 J/K/mol
- molar heat capacity at constant pressure ([1]; 323.15 K): 92.96 ± 1.4 J/K/mol

SMILES: CC#N [acetonitrile]
- molar heat capacity at constant pressure [2]: 90.93 ± 1.4 J/K/mol

SMILES: CCCCCCCC[n+]1ccn(C)c1.F[B-](F)(F)F [1-methyl-3-octylimidazolium tetrafluoroborate]
- molar heat capacity at constant pressure [2]: 498.3 ± 11 J/K/mol
